Assay: Solubility in water (four-stage evaluation)
Assay type: physicochemical

Compound | solubility | Solubility in Water
Cc1cc(C(C)(C)c2ccccc2)c(C)c(C(=O)O)c1O [11-2 Sodium] | > 500 mg/mL | 
CCC(C)(C)c1cc(C(C)(C)CC)c(O)c(C(=O)O)c1C [3-2 Sodium] | > 500 mg/mL | 
Cc1c(C(C)(C)C)cc(C(C)(C)CC(C)(C)C)c(O)c1C(=O)O [4-3 Sodium] | > 500 mg/mL | 
C1COCCN1 [1 Morpholine] | > 500 mg/mL | 
Cc1c(C(C)(C)C)cc(C(C)(C)CC(C)(C)C)c(O)c1C(=O)O [4-3 Morpholine] |  | .circleincircle. (solubility =not less than 50%)
Cc1c(C(C)(C)C)cc(C(C)(C)c2ccccc2)c(O)c1C(=O)O [5-3 Morpholine] |  | .circleincircle. (solubility =not less than 50%)
Cc1cc(C(C)(C)c2ccccc2)cc(C(=O)O)c1O [(2) Sodium, 3-methyl-5-(α, α-dimethylbenzyl)salicylic acid, reference compound] | 200 to 500 mg/mL | 
Cc1c(C(C)(C)C)cc(C(C)(C)C)c(O)c1C(=O)O [1 Sodium] | > 500 mg/mL | 
Cc1c(C(C)(C)c2ccccc2)cc(C(C)(C)C)c(O)c1C(=O)O [2-2 Sodium] | > 500 mg/mL | 
Cc1c(C(C)(C)c2ccccc2)cc(C(C)(C)C)c(O)c1C(=O)O [2-2 Morpholine] |  | .circleincircle. (solubility =not less than 50%)
Cc1c(C(C)(C)C)cc(C(C)(C)c2ccccc2)c(O)c1C(=O)O [5-3 Sodium] | > 500 mg/mL | 
Cc1c(C(C)(C)c2ccccc2)cc(C(C)C)c(O)c1C(=O)O [12-2 Sodium] | > 500 mg/mL | 

Assay: Solubility in toluene (four-stage evaluation)
Assay type: physicochemical

Compound | Solubility in Toluene
Cc1cc(C(C)(C)c2ccccc2)c(C)c(C(=O)O)c1O [11-2 Free Acid] | .largecircle. (solubility =not less than 20% to less than 50%)
C1COCCN1 [1 Morpholine] | .largecircle. (solubility =not less than 20% to less than 50%)
Cc1c(C(C)(C)C)cc(C(C)(C)CC(C)(C)C)c(O)c1C(=O)O [4-3 Free Acid] | .circleincircle. (solubility =not less than 50%)
Cc1c(C(C)(C)C)cc(C(C)(C)CC(C)(C)C)c(O)c1C(=O)O [4-3 Morpholine] | .largecircle. (solubility =not less than 20% to less than 50%)
Cc1c(C(C)(C)c2ccccc2)cc(C(C)C)c(O)c1C(=O)O [12-2 Free Acid] | .circleincircle. (solubility =not less than 50%)
Cc1c(C(C)(C)C)cc(C(C)(C)c2ccccc2)c(O)c1C(=O)O [5-3 Morpholine] | .largecircle. (solubility =not less than 20% to less than 50%)
CCC(C)(C)c1cc(C(C)(C)CC)c(O)c(C(=O)O)c1C [3-2 Free Acid] | .largecircle. (solubility =not less than 20% to less than 50%)
Cc1c(C(C)(C)c2ccccc2)cc(C(C)(C)C)c(O)c1C(=O)O [2-2 Free Acid] | .circleincircle. (solubility =not less than 50%)
Cc1c(C(C)(C)C)cc(C(C)(C)C)c(O)c1C(=O)O [1 Free Acid] | .largecircle. (solubility =not less than 20% to less than 50%)
Cc1c(C(C)(C)C)cc(C(C)(C)c2ccccc2)c(O)c1C(=O)O [5-3 Free Acid] | .circleincircle. (solubility =not less than 50%)
Cc1cc(C(C)(C)c2ccccc2)cc(C(=O)O)c1O [(2) Free Acid, 3-methyl-5-(α,α-dimethyllbenzyl)salicylic acid, reference compound] | Δ (solubility =not less than 5% to less than 20%)
Cc1c(C(C)(C)c2ccccc2)cc(C(C)(C)C)c(O)c1C(=O)O [2-2 Morpholine] | .largecircle. (solubility =not less than 20% to less than 50%)

From patent US5049685A, “Nuclear substituted salicylic acids and their salts” (Sanko Kaihatsu Kagaku Kenkyusho, priority 1988, dated 1991)
